In the supplement of paper PMC8967900:

Legend:
Assay in all cases: selective drug sensitivity score (sDSS, relative to normal bone marrow) (sDSS (score)); higher = more potent and effective on the cell line relative to normal bone marrow cells
Conditions in all cases: 72 h
[1] = system: 380
[2] = system: ALL-SIL
[3] = system: COG-LL-319h
[4] = system: COG-LL-355h
[5] = system: JURKAT
[6] = system: KARPAS-45
[7] = system: KASUMI-10
[8] = system: KASUMI-9
[9] = system: MHH-CALL-2
[10] = system: MHH-CALL-3
[11] = system: MHH-CALL-4
[12] = system: MN-60
[13] = system: NALL-1
[14] = system: NALM-16
[15] = system: NALM-6
[16] = system: PEER
[17] = system: PF-382
[18] = system: REH
[19] = system: RPMI-8402
[20] = system: TMD5
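Also: ALL cell lines in 384-well plates, five doses spanning 10,000-fold, each plate scaled between vehicle and 100 µmol/L benzalkonium chloride controls, sDSS an adapted area-under-curve metric.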

Row | Structure (SMILES) | selective drug sensitivity score [1] | selective drug sensitivity score [2] | selective drug sensitivity score [3] | selective drug sensitivity score [4] | selective drug sensitivity score [5] | selective drug sensitivity score [6] | selective drug sensitivity score [7] | selective drug sensitivity score [8] | selective drug sensitivity score [9] | selective drug sensitivity score [10] | selective drug sensitivity score [11] | selective drug sensitivity score [12] | selective drug sensitivity score [13] | selective drug sensitivity score [14] | selective drug sensitivity score [15] | selective drug sensitivity score [16] | selective drug sensitivity score [17] | selective drug sensitivity score [18] | selective drug sensitivity score [19] | selective drug sensitivity score [20]
1 | CCn1cc(-c2ccnc3[nH]c(-c4cccc(CN(C)C)c4)cc23)c(-c2ccc(NC(=O)N(C)C)cc2)n1 (top concentration 1000 nM) | 19 | 21.3 | 22.9 | 8.36 | -1.84 | 24.1 | 9.86 | 20.3 | 6.66 | 2.06 | 7.46 | -1.84 | 13.1 | -1.84 | 13.8 | 20.4 | 9.26 | 19.3 | 8.86 | 13.5
2 | CC(C)(C)C[C@@H]1N[C@@H](C(=O)N[C@H]2CC[C@H](O)CC2)[C@H](c2cccc(Cl)c2F)[C@]12C(=O)Nc1cc(Cl)ccc12 (top concentration 10000 nM) | 14.3 | -3.34 | 13.9 | 8.46 | -4.74 | -2.64 | 12.5 | 16.4 | 13.2 | 16.9 | 8.96 | -0.74 | -7.64 | -3.54 | 6.26 | -2.04 | -3.94 | 3.56 | -3.34 | 9.16
3 | Cc1c(Cn2c(C)nc3c(C(=O)O)cc(N4CCOCC4)cc32)cccc1C(F)(F)F (top concentration 10000 nM) | -0.02 | -0.02 | -0.02 | 1.98 | -0.02 | 0.08 | -0.02 | 1.08 | 0.58 | -0.02 | 0.58 | -0.02 | 0.68 | -0.02 | -0.02 | -0.02 | -0.02 | 0.68 | -0.02 | -0.02
4 | Nc1ncnc2c1c(COc1cccc(Cl)c1)nn2C1CCOCC1 (top concentration 10000 nM) | 5.46 | -0.64 | 3.96 | 2.06 | 0.06 | 0.26 | -0.64 | 1.06 | 1.76 | 0.66 | -0.64 | 2.96 | -0.64 | -0.64 | -0.54 | -0.64 | -0.24 | -0.64 | 0.46 | -0.64
5 | Cn1cc(C[C@@H](N)C(=O)O)c2ccccc21 [1-methyl-D-tryptophan] (top concentration 5000 nM) | -0.02 | -0.62 | -0.62 | -0.62 | -0.62 | -0.62 | -0.62 | -0.62 | 2.28 | 1.48 | -0.62 | -0.62 | -0.62 | -0.62 | -0.62 | -0.62 | -0.62 | 3.68 | -0.62 | -0.62
6 | COc1cc2c(cc1OCCCN1CCCC1)N=C(N)C21CCC1 [A-366] (top concentration 25000 nM) | -1.84 | -0.34 | 3.16 | 0.76 | -1.04 | 5.16 | 1.46 | 2.36 | -1.14 | -1.84 | -0.34 | -1.84 | -1.84 | -1.84 | -1.84 | 1.46 | -0.84 | 0.36 | 4.06 | -1.84
7 | COCCOc1cnc2ccn([C@H](C)c3nnc4c(F)cc(-c5cnn(C)c5)cn34)c(=O)c2c1 [AMG-337] (top concentration 10000 nM) | 3.04 | -0.06 | -0.06 | -0.06 | -0.06 | -0.06 | -0.06 | 0.14 | 7.54 | 4.94 | -0.06 | -0.06 | 2.14 | -0.06 | -0.06 | -0.06 | -0.06 | 1.24 | -0.06 | -0.06
8 | COc1cc(N2CCC(N3CCN(C)CC3)CC2)ccc1Nc1ncnc(Nc2ccccc2S(=O)(=O)C(C)C)n1 [ASP3026] (top concentration 10000 nM) | -2.74 | 0.16 | -4.04 | 1.36 | -1.54 | 0.56 | 2.86 | -0.84 | -0.84 | -4.04 | -3.94 | 0.66 | -2.64 | -2.64 | 1.86 | -0.24 | -0.04 | 3.26 | 0.56 | -1.84
9 | CN[C@@H](C)C(=O)N[C@H]1CN(C(=O)CC(C)C)CC[C@H]2CC[C@@H](C(=O)NC(c3ccccc3)c3ccccc3)N2C1=O [AT-406] (top concentration 10000 nM) | -1.26 | -1.26 | -1.06 | 8.04 | -1.26 | -1.26 | -1.26 | -1.26 | 2.14 | -1.26 | -1.26 | -1.26 | 5.34 | -1.26 | -1.26 | -1.16 | -1.26 | 5.74 | -0.96 | 6.54
10 | COc1cc2ncnc(Nc3cccc(Cl)c3F)c2cc1OC(=O)N1CCN(C)C[C@H]1C [AZD3759] (top concentration 1000 nM) | -0.04 | 5.76 | 0.96 | -0.04 | -0.04 | -0.04 | -0.04 | -0.04 | 1.56 | -0.04 | -0.04 | -0.04 | 0.86 | -0.04 | -0.04 | -0.04 | -0.04 | 0.66 | -0.04 | 0.06
11 | C[C@]12CC[C@H](O)CC1=CC[C@@H]1[C@@H]2CC[C@]2(C)C(c3cccnc3)=CC[C@@H]12 [Abiraterone] (top concentration 5000 nM) | 0.58 | -0.12 | 0.08 | -0.12 | 0.18 | -0.12 | -0.12 | -0.12 | 0.88 | -0.12 | 0.28 | -0.12 | 3.08 | -0.12 | -0.12 | -0.12 | -0.12 | -0.12 | -0.12 | -0.12
12 | CC#CC(=O)N1CCC[C@H]1c1nc(-c2ccc(C(=O)Nc3ccccn3)cc2)c2c(N)nccn12 [Acalabrutinib] (top concentration 1000 nM) | 9.6 | -0.1 | 0 | -0.1 | 0 | 0.7 | 1.8 | 1.2 | 9 | 0 | 7.4 | -0.1 | -0.1 | -0.1 | -0.1 | -0.1 | 0 | -0.1 | -0.1 | 5.9
13 | CCc1cc2c(cc1N1CCC(N3CCOCC3)CC1)C(C)(C)c1[nH]c3cc(C#N)ccc3c1C2=O [Alectinib] (top concentration 1000 nM) | 0.38 | -0.22 | 2.48 | -0.02 | -0.22 | 1.28 | 1.68 | 0.88 | -0.12 | -0.22 | -0.12 | 0.98 | -0.22 | -0.22 | 1.28 | 0.78 | -0.22 | -0.02 | 2.08 | -0.22
14 | Oc1ncnc2[nH]ncc12 [Allopurinol] (top concentration 10000 nM) | -0.64 | -0.14 | 3.56 | -0.64 | -0.64 | -0.24 | -0.64 | -0.64 | -0.64 | -0.64 | -0.64 | -0.64 | -0.64 | -0.64 | -0.04 | -0.64 | -0.64 | -0.64 | -0.64 | -0.64
15 | COc1cc(NS(C)(=O)=O)ccc1Nc1c2ccccc2nc2ccccc12 [Amsacrine] (top concentration 10000 nM) | 23.2 | 10.2 | 18.2 | 11 | 7.96 | 1.76 | 11 | 16 | 10.5 | 23.5 | 13.2 | -1.84 | 5.66 | 0.66 | 10.7 | 3.16 | 10.9 | 19.1 | 14.4 | 3.86
16 | O=C1CN2Cc3c(ccc(Cl)c3Cl)N=C2N1 [Anagrelide] (top concentration 10000 nM) | 0.1 | 2.8 | 0 | 4.6 | 0 | 0 | 0 | 0 | 1.5 | 0 | 0.6 | 0 | 1.1 | 0 | 0 | 0 | 0 | 0 | 0 | 0
17 | N#CC(c1ccnc(OCc2ccc(CN3CCOCC3)cc2)n1)c1nc2ccccc2s1 (stereo not given) [Bentamapimod] (top concentration 10000 nM) | -0.46 | 2.34 | -0.06 | 1.84 | 3.94 | 5.54 | -0.46 | 6.24 | 4.94 | -0.46 | -0.46 | 2.44 | 1.14 | -0.46 | 2.44 | 5.64 | 3.84 | 6.54 | 4.94 | 0.74
18 | CCNC(=O)CCC/C=C\C[C@@H]1[C@@H](/C=C/[C@@H](O)CCc2ccccc2)[C@H](O)C[C@@H]1O [Bimatoprost] (top concentration 5500 nM) | 0 | 0 | 0 | 0 | 0 | 0 | 0 | 0 | 0 | 0 | 0.5 | 0 | 0 | 0 | 0 | 0 | 0 | 1.4 | 0 | 0
